From ChEMBL document CHEMBL4813985, “Lead optimization generates selenium-containing miconazole CYP51 inhibitors with improved pharmacological profile for the treatment of fungal infections” (Eur J Med Chem, 2021)
Converted amounts (≈) assume the structure as drawn.

Key:
Assay type in all cases: functional
Candida albicans [1] = experiment: Antifungal activity against fluconazole-resistant Candida albicans 904 assessed as inhibition of microbial growth after 24 hrs by broth microdilution method
Candida albicans [2] = experiment: Antifungal activity against fluconazole-resistant Candida albicans CaR assessed as inhibition of microbial growth after 24 hrs by broth microdilution method
Cryptococcus neoformans = experiment: Antifungal activity against Cryptococcus neoformans CMGCC2.3161 measured after 72 hrs by broth microdilution assay
[Candida] zeylanoides = Antifungal activity against Candida zeylanoides CMGCC2.3739 measured after 24 hrs by broth microdilution assay; conditions: Dujonia zeylanoides
Candida albicans [3] = experiment: Antifungal activity against fluconazole-resistant Candida albicans 901 assessed as inhibition of microbial growth after 24 hrs by broth microdilution method
Pichia kudriavzevii = experiment: Antifungal activity against Candida krusei AS2.1045 measured after 24 hrs by broth microdilution assay
Nakaseomyces glabratus = experiment: Antifungal activity against Candida glabrata measured after 24 hrs by broth microdilution assay
Aspergillus fumigatus = experiment: Antifungal activity against Aspergillus fumigatus CMGCC3.7795 measured after 72 hrs by broth microdilution assay
Candida albicans [4] = experiment: Antifungal activity against Candida albicans CPCC400616 measured after 24 hrs by broth microdilution assay
Candida parapsilosis = experiment: Antifungal activity against Candida parapsilosis ATCC 22019 measured after 24 hrs by broth microdilution assay; conditions: Lodderomyces parapsilosis
Candida albicans [5] = experiment: Antifungal activity against Candida albicans ATCC SC5314 measured after 24 hrs by broth microdilution assay
Candida albicans [6] = experiment: Antifungal activity against fluconazole-resistant Candida albicans 17# assessed as inhibition of microbial growth after 24 hrs by broth microdilution method
Candida albicans [7] = experiment: Antifungal activity against fluconazole-resistant Candida albicans 632 assessed as inhibition of microbial growth after 24 hrs by broth microdilution method

## COc1ccc(C[Se]C(Cn2cncn2)c2ccc(Cl)cc2Cl)cc1 (stereo not given)
Candida albicans [1]
  MIC: 128 µg/mL
Candida albicans [2]
  MIC: 128 µg/mL
Cryptococcus neoformans
  MIC: 16 µg/mL (≈ 36.3 µM)
[Candida] zeylanoides
  MIC: 32 µg/mL (≈ 72.5 µM)
Candida albicans [3]
  MIC: 128 µg/mL
Pichia kudriavzevii
  MIC: 64 µg/mL (≈ 145 µM)
Nakaseomyces glabratus
  MIC: 4 µg/mL (≈ 9.07 µM)
Aspergillus fumigatus
  MIC: 4 µg/mL (≈ 9.07 µM)
Candida albicans [4]
  MIC: 16 µg/mL (≈ 36.3 µM)
Candida parapsilosis
  MIC: 32 µg/mL (≈ 72.5 µM)
Candida albicans [5]
  MIC: 1 µg/mL (≈ 2.27 µM)
Candida albicans [6]
  MIC: 32 µg/mL
Candida albicans [7]
  MIC: > 128 µg/mL

## Fc1ccc(C(Cn2cncn2)[Se]Cc2ccccc2Cl)c(F)c1 (stereo not given)
Candida albicans [1]
  MIC: 2 µg/mL
Candida albicans [2]
  MIC: 32 µg/mL
Cryptococcus neoformans
  MIC: 2 µg/mL (≈ 4.85 µM)
[Candida] zeylanoides
  MIC: 1 µg/mL (≈ 2.42 µM)
Candida albicans [3]
  MIC: 4 µg/mL
Pichia kudriavzevii
  MIC: 2 µg/mL (≈ 4.85 µM)
Nakaseomyces glabratus
  MIC: 2 µg/mL (≈ 4.85 µM)
Aspergillus fumigatus
  MIC: 8 µg/mL (≈ 19.4 µM)
Candida albicans [4]
  MIC: 0.03 µg/mL (≈ 0.0727 µM)
Candida parapsilosis
  MIC: 0.5 µg/mL (≈ 1.21 µM)
Candida albicans [5]
  MIC: 0.13 µg/mL (≈ 0.315 µM)
Candida albicans [6]
  MIC: 4 µg/mL
Candida albicans [7]
  MIC: 8 µg/mL

## Cc1ccc(C[Se]C(Cn2cncn2)c2ccc(F)cc2F)cc1 (stereo not given)
Candida albicans [1]
  MIC: > 128 µg/mL
Candida albicans [2]
  MIC: > 128 µg/mL
Cryptococcus neoformans
  MIC: 4 µg/mL (≈ 10.2 µM)
[Candida] zeylanoides
  MIC: 32 µg/mL (≈ 81.6 µM)
Candida albicans [3]
  MIC: > 128 µg/mL
Pichia kudriavzevii
  MIC: 128 µg/mL (≈ 326 µM)
Nakaseomyces glabratus
  MIC: 2 µg/mL (≈ 5.1 µM)
Aspergillus fumigatus
  MIC: 8 µg/mL (≈ 20.4 µM)
Candida albicans [4]
  MIC: 2 µg/mL (≈ 5.1 µM)
Candida parapsilosis
  MIC: 128 µg/mL (≈ 326 µM)
Candida albicans [5]
  MIC: 2 µg/mL (≈ 5.1 µM)
Candida albicans [6]
  MIC: 64 µg/mL
Candida albicans [7]
  MIC: > 128 µg/mL

## COc1ccc(C[Se]C(Cn2cncn2)c2ccc(F)cc2F)cc1 (stereo not given)
Candida albicans [1]
  MIC: > 128 µg/mL
Candida albicans [2]
  MIC: 128 µg/mL
Cryptococcus neoformans
  MIC: 32 µg/mL (≈ 78.4 µM)
[Candida] zeylanoides
  MIC: 32 µg/mL (≈ 78.4 µM)
Candida albicans [3]
  MIC: > 128 µg/mL
Pichia kudriavzevii
  MIC: 32 µg/mL (≈ 78.4 µM)
Nakaseomyces glabratus
  MIC: 2 µg/mL (≈ 4.9 µM)
Aspergillus fumigatus
  MIC: 4 µg/mL (≈ 9.8 µM)
Candida albicans [4]
  MIC: 1 µg/mL (≈ 2.45 µM)
Candida parapsilosis
  MIC: > 128 µg/mL
Candida albicans [5]
  MIC: 2 µg/mL (≈ 4.9 µM)
Candida albicans [6]
  MIC: 64 µg/mL
Candida albicans [7]
  MIC: > 128 µg/mL

## Cc1ccc(C[Se]C(Cn2cncn2)c2ccc(Cl)cc2Cl)cc1 (stereo not given)
Candida albicans [1]
  MIC: > 128 µg/mL
Candida albicans [2]
  MIC: > 128 µg/mL
Cryptococcus neoformans
  MIC: 32 µg/mL (≈ 75.3 µM)
[Candida] zeylanoides
  MIC: 128 µg/mL (≈ 301 µM)
Candida albicans [3]
  MIC: > 128 µg/mL
Pichia kudriavzevii
  MIC: 64 µg/mL (≈ 151 µM)
Nakaseomyces glabratus
  MIC: 2 µg/mL (≈ 4.7 µM)
Aspergillus fumigatus
  MIC: 16 µg/mL (≈ 37.6 µM)
Candida albicans [4]
  MIC: 16 µg/mL (≈ 37.6 µM)
Candida parapsilosis
  MIC: 64 µg/mL (≈ 151 µM)
Candida albicans [5]
  MIC: 2 µg/mL (≈ 4.7 µM)
Candida albicans [6]
  MIC: > 128 µg/mL
Candida albicans [7]
  MIC: > 128 µg/mL

## Clc1ccc(C[Se]C(Cn2cncn2)c2ccc(Cl)cc2Cl)cc1 (stereo not given)
Candida albicans [1]
  MIC: > 128 µg/mL
Candida albicans [2]
  MIC: > 128 µg/mL
Cryptococcus neoformans
  MIC: 16 µg/mL (≈ 35.9 µM)
[Candida] zeylanoides
  MIC: 128 µg/mL (≈ 287 µM)
Candida albicans [3]
  MIC: > 128 µg/mL
Pichia kudriavzevii
  MIC: 128 µg/mL (≈ 287 µM)
Nakaseomyces glabratus
  MIC: 2 µg/mL (≈ 4.49 µM)
Aspergillus fumigatus
  MIC: 16 µg/mL (≈ 35.9 µM)
Candida albicans [4]
  MIC: 16 µg/mL (≈ 35.9 µM)
Candida parapsilosis
  MIC: 64 µg/mL (≈ 144 µM)
Candida albicans [5]
  MIC: 2 µg/mL (≈ 4.49 µM)
Candida albicans [6]
  MIC: > 128 µg/mL
Candida albicans [7]
  MIC: > 128 µg/mL

## Fc1ccc(C[Se]C(Cn2cncn2)c2ccc(Cl)cc2Cl)cc1 (stereo not given)
Candida albicans [1]
  MIC: > 128 µg/mL
Candida albicans [2]
  MIC: > 128 µg/mL
Cryptococcus neoformans
  MIC: 8 µg/mL (≈ 18.6 µM)
[Candida] zeylanoides
  MIC: 64 µg/mL (≈ 149 µM)
Candida albicans [3]
  MIC: > 128 µg/mL
Pichia kudriavzevii
  MIC: 128 µg/mL (≈ 298 µM)
Nakaseomyces glabratus
  MIC: 4 µg/mL (≈ 9.32 µM)
Aspergillus fumigatus
  MIC: 16 µg/mL (≈ 37.3 µM)
Candida albicans [4]
  MIC: 2 µg/mL (≈ 4.66 µM)
Candida parapsilosis
  MIC: 64 µg/mL (≈ 149 µM)
Candida albicans [5]
  MIC: 0.13 µg/mL (≈ 0.303 µM)
Candida albicans [6]
  MIC: > 128 µg/mL
Candida albicans [7]
  MIC: > 128 µg/mL

## Clc1ccc(C(Cn2cncn2)[Se]Cc2ccccc2)c(Cl)c1 (stereo not given)
Candida albicans [1]
  MIC: > 128 µg/mL
Candida albicans [2]
  MIC: > 128 µg/mL
Cryptococcus neoformans
  MIC: 2 µg/mL (≈ 4.86 µM)
[Candida] zeylanoides
  MIC: 64 µg/mL (≈ 156 µM)
Candida albicans [3]
  MIC: > 128 µg/mL
Pichia kudriavzevii
  MIC: 128 µg/mL (≈ 311 µM)
Nakaseomyces glabratus
  MIC: 4 µg/mL (≈ 9.73 µM)
Aspergillus fumigatus
  MIC: 16 µg/mL (≈ 38.9 µM)
Candida albicans [4]
  MIC: 0.13 µg/mL (≈ 0.316 µM)
Candida parapsilosis
  MIC: 32 µg/mL (≈ 77.8 µM)
Candida albicans [5]
  MIC: 0.13 µg/mL (≈ 0.316 µM)
Candida albicans [6]
  MIC: 64 µg/mL
Candida albicans [7]
  MIC: > 128 µg/mL

## Fc1ccc(C(Cn2cncn2)[Se]Cc2ccc(Cl)cc2)c(F)c1 (stereo not given)
Candida albicans [1]
  MIC: 8 µg/mL
Candida albicans [2]
  MIC: 128 µg/mL
Cryptococcus neoformans
  MIC: 4 µg/mL (≈ 9.69 µM)
[Candida] zeylanoides
  MIC: 4 µg/mL (≈ 9.69 µM)
Candida albicans [3]
  MIC: 4 µg/mL
Pichia kudriavzevii
  MIC: 128 µg/mL (≈ 310 µM)
Nakaseomyces glabratus
  MIC: 0.5 µg/mL (≈ 1.21 µM)
Aspergillus fumigatus
  MIC: 8 µg/mL (≈ 19.4 µM)
Candida albicans [4]
  MIC: 0.13 µg/mL (≈ 0.315 µM)
Candida parapsilosis
  MIC: 64 µg/mL (≈ 155 µM)
Candida albicans [5]
  MIC: 0.13 µg/mL (≈ 0.315 µM)
Candida albicans [6]
  MIC: 16 µg/mL
Candida albicans [7]
  MIC: > 128 µg/mL

## Clc1ccc(C[Se]C(Cn2cncn2)c2ccc(Cl)cc2Cl)c(Cl)c1 (stereo not given)
Candida albicans [1]
  MIC: > 128 µg/mL
Candida albicans [2]
  MIC: > 128 µg/mL
Cryptococcus neoformans
  MIC: 64 µg/mL (≈ 133 µM)
[Candida] zeylanoides
  MIC: 128 µg/mL (≈ 267 µM)
Candida albicans [3]
  MIC: > 128 µg/mL
Pichia kudriavzevii
  MIC: 128 µg/mL (≈ 267 µM)
Nakaseomyces glabratus
  MIC: 0.5 µg/mL (≈ 1.04 µM)
Aspergillus fumigatus
  MIC: 16 µg/mL (≈ 33.3 µM)
Candida albicans [4]
  MIC: 0.25 µg/mL (≈ 0.521 µM)
Candida parapsilosis
  MIC: 64 µg/mL (≈ 133 µM)
Candida albicans [5]
  MIC: 0.25 µg/mL (≈ 0.521 µM)
Candida albicans [6]
  MIC: > 128 µg/mL
Candida albicans [7]
  MIC: > 128 µg/mL
